Consider two compounds from paper PMC10683482, “Offsetting Low-Affinity Carbohydrate Binding with Covalency to Engage Sugar-Specific Proteins for Tumor-Immune Proximity Induction” (ACS Central Science, 2023).

Molecules are shown by their SMILES. Read-outs that look alike come from different tables or passages of the source.

The test system of assay [1] is monoclonal anti-23F antibody. Description: BLI affinity of rhamnose probes for monoclonal anti-23F. In kind it is binding, human. The note with it: for koff: dissociation in 100 mM L-rhamnose; for anti-23F recognition of glycoside variant: 125 nM anti-23F association. An excerpt: (§1) Figure 1 Affinity determination of endogenous and monoclonal antibody sources for L-rhamnose glycoside variants. A. Chemical structures of rhamnose affinity probes. B/C. Approximation of antirhamnose antibody binding affinity for probes 1–3 using biolayer interferometry. B. Purified human serum IgG is used to estimate the affinity of endogenous polyclonal serum antirhamnose antibodies for each affinity probe 1–3. C. Monoclonal anti-23F antibody is used to estimate the potential affinity of vaccine-induced antirhamnose antibodies for each affinity probe 1–3. […] Association was monitored for 900 (B) or 600 (C) seconds. The loaded biosensor probe was then dipped into a dissociation solution of 100 mM L-rhamnose for 600 s. Association curves were fit to a two-phase association model in GraphPad Prism using Kfast to calculate kon. Dissociation curves were similarly fit to a two-phase decay using Kfast to calculate koff. TEXT PRINTED IN THE PICTURE: (B) no label printed: Polyclonal Human IgG: Kd ≈ 7 x10^-5 M | (C) no label printed: Monoclonal Anti-23F: Kd ≈ 6 x10^-6 M DOUBTS OF THE COPYIST ABOUT THIS PICTURE: Panel B, Kd ≈ 7 x10^-5 M: printed once in the plot with no link to a single curve, so it is unclear which of (1) α–O, (2) α–S and (3) β–S it applies to / Panel C, Kd ≈ 6 x10^-6 M: printed once in the plot with no link to a single curve, so it is unclear which of (1) α–O, (2) α–S and (3) β–S it applies to […]
The advancement of synthetic immunotherapeutic modalities targeting anti-rhamnose antibodies has been complicated by a lack of model monoclonal antibody to enable medicinal chemistry optimization. Previous studies relied on polyclonal antirhamnose sources (e.g., human/rabbit serum) for validation studies. We hypothesized that antibodies induced by vaccination against the 23F serotype of streptococcus pneumonia (which contains α-rhamnose) would serve as a source of novel monoclonal antibodies. FDA-approved vaccines (such as PPV23) can induce anti-23F antibodies, with patient-derived monoclonal anti-23F antibody sequences commercially available.[22]−[24] We proceeded to study anti-23F in BLI assays as done in Figure 1B (Figure 1C, association phase = 125 nM anti-23F). […] Furthermore, given the efficient recognition of α-rhamnose by both endogenous human polyclonal and monoclonal antirhamnose sources, it was selected as the ABD for subsequent cARM development.
(§2) General Notes and Materials […]
(§3) Biolayer Interferometry (BLI) General notes and Materials
(§4) IgG from human serum was purchased from Innovative Research (IHUI GGAP1000MG). Anti -23F antibody was purchased fr om Creative Biolabs (PABX -173). Biolayer Interferometry (BLI) was conducted using a ForteBio Octet Red96, and streptavidin biosensors (Sartorius - 18-5019) or ProG biosensors (Sartorius – 18-5082). For quench, a 5% skim milk (Nestle Carnation Instant Skim Milk) solution in 1X kinetics buffer was used. The instrument was set at 25 °C, with 1000 RPM, and acquisition rate of 5 Hz.
(§5) Each well of a black well plate (Greiner Bio -One - 655086) was filled with 200 µL of appropriate solution.
(§6) Dissociation buffer was comprised of L-rhamnose (100 mM, Sigma Aldrich – R3875-10G) in 1X kinetics buffer to reduce avidity contribution to dissociation rate (koff).
(§7) SDS-PAGE General notes and Materials […]
(§8) Carboxyfluorescein was purchased from Sigma Aldrich (21877 -5G-F). IgG from human serum was purchased from Innovative Research (IHUIGGAP1000MG). Anti -23F antibody was purchased from Creative Biolabs (PABX -173). Laemellie Buffer (2x) was purchased from Sigma Aldrich (S3401 -10VL).
Pre-cast Tris-Glycine Gels (4-20%) were purchased from Fisher Scientific (XP04202BOX). […]
A647-alkyne was purchased from Broadpharm (BP-28217). Gels were stained using Coomassie Stain from Bio Rad (1610786), and subsequently imaged using an Odyssey CLX imager. Gels were run at 90V for 15 minutes, followed by […]
ADCC Reporter Assay General notes and Materials […]

Assay [2] relates to serum polyclonal antirhamnose antibodies (human IgG). Description: BLI affinity of rhamnose probes for polyclonal human IgG. Conditions: for kon: anti-rhamnose assumed 3% of total IgG; for koff: dissociation in 100 mM L-rhamnose. In kind it is binding.
From the text: We began by synthesizing antirhamnose affinity probes consisting of α-O/α-S and β-S rhamnose glycosides functionalized with a propargyl group for CuAAC-mediated coupling to a biotin TBD (compounds 1–3, Figure 1A and Scheme S1). This enabled rhamnose immobilization onto streptavidin surfaces and subsequent antibody binding studies. We used biolayer interferometry (BLI) to estimate and compare the apparent affinity of serum polyclonal antirhamnose antibodies for each rhamnose affinity probe (Figure 1B). […] Next, biosensors were submerged in a buffer containing free rhamnose competitor, and dissociation kinetics were measured (Figure 1B, Dissociation). The dissociation buffer contained 100 mM rhamnose competitor to inhibit avidity-based antibody rebinding, which interferes with koff measurements. […] In the context of proximity-inducing molecule development, this low monovalent sugar-binding affinity will ultimately limit ternary complex formation. […] The confirmation of low affinity binding also supports why multivalency has been historically required to efficiently engage antirhamnose antibodies for tumor-immune proximity induction and engage sugar binding receptors in general.
as §1, §2, §3, §4, §5, §6, §7, §8
Pre-cast Tris-Glycine Gels (4-20%) were purchased from Fisher Scientific (XP04202BOX). Standard protein ladder was purchased from Bio Rad (1610363). […]

Setting [3] is: average of three anti-23F concentrations, read-out: Avg Kd.
The mark [4] stands for this setting: average of three IgG concentrations, read-out: Avg Kd.

For orientation: kon means the second-order rate constant of association. Read a high kon as fast association. By koff is commonly meant a measure of how fast the partners let go of each other. Lower therefore signals a long-lived complex. The Kd is a measure of binding affinity in units of concentration. With `C[C@@H]1O[C@@H](SCc2cn(CCOCCNC(=O)OCCOCCOCCOCCOCCOCCOCCOCCNC(=O)CCCC[C@@H]3SC[C@@H]4NC(=O)N[C@@H]43)nn2)[C@H](O)[C@H](O)[C@H]1O` [compound 2], the on-rate (kon) worked out at 770000 M⁻¹ s⁻¹ in assay [1] (125 nM Anti-23F); 730000 M⁻¹ s⁻¹ in assay [1] (250 nM Anti-23F); 560000 M⁻¹ s⁻¹ in assay [1] (500 nM Anti-23F); 21981 M⁻¹ s⁻¹ in assay [2] (26.2 µM IgG); 14298 M⁻¹ s⁻¹ in assay [2] (52.5 µM IgG); 8194 M⁻¹ s⁻¹ in assay [2] (105 µM IgG). For the same compound, the koff in assay [1] (125 nM Anti-23F) turned out to be 4.018 s⁻¹; in assay [1] (250 nM Anti-23F) it was 4.378 s⁻¹; in assay [1] (500 nM Anti-23F), 3.509 s⁻¹; in assay [2] (26.2 µM IgG) it was 1.103 s⁻¹; in assay [2] (52.5 µM IgG), 0.97 s⁻¹; in assay [2] (105 µM IgG) it was 0.8262 s⁻¹. In addition, the Kd came to 5.2 µM in assay [1] (125 nM Anti-23F, read-out: Kd); 6 µM in assay [1] (250 nM Anti-23F, read-out: Kd); 6.2 µM in assay [1] (500 nM Anti-23F, read-out: Kd); 5.8 ± 0.5 µM in assay [1] (setting [3]); 50 µM in assay [2] (26.2 µM IgG, read-out: Kd); 68 µM in assay [2] (52.5 µM IgG, read-out: Kd). For the same compound, the dissociation constant (Kd) was found to be 101 µM in assay [2] (105 µM IgG, read-out: Kd) and 73 ± 26 µM in assay [2] (setting [4]). Besides, the “anti-23F recognition of glycoside variant” value in assay [1] is recorded as “uniquely specific for α-glycoside variants”.
Consider `C[C@@H]1O[C@@H](OCc2cn(CCOCCNC(=O)OCCOCCOCCOCCOCCOCCOCCOCCNC(=O)CCCC[C@@H]3SC[C@@H]4NC(=O)N[C@@H]43)nn2)[C@H](O)[C@H](O)[C@H]1O` [compound 1], for which the kon in assay [1] (125 nM Anti-23F) was determined as 1.1e+06 M⁻¹ s⁻¹; in assay [1] (250 nM Anti-23F), 920000 M⁻¹ s⁻¹; in assay [1] (500 nM Anti-23F), 630000 M⁻¹ s⁻¹; in assay [2] (26.2 µM IgG), 20749 M⁻¹ s⁻¹; in assay [2] (52.5 µM IgG), 13810 M⁻¹ s⁻¹; in assay [2] (105 µM IgG), 8235 M⁻¹ s⁻¹. Moreover, the koff is 5.591 s⁻¹ in assay [1] (125 nM Anti-23F); 5.773 s⁻¹ in assay [1] (250 nM Anti-23F); 4.673 s⁻¹ in assay [1] (500 nM Anti-23F); 1.199 s⁻¹ in assay [2] (26.2 µM IgG); 1.112 s⁻¹ in assay [2] (52.5 µM IgG); 1.058 s⁻¹ in assay [2] (105 µM IgG). Moreover, the Kd came out at 5.2 µM in assay [1] (125 nM Anti-23F, read-out: Kd); 6.2 µM in assay [1] (250 nM Anti-23F, read-out: Kd); 7.4 µM in assay [1] (500 nM Anti-23F, read-out: Kd); 6.3 ± 1.1 µM in assay [1] (setting [3]); 58 µM in assay [2] (26.2 µM IgG, read-out: Kd); 81 µM in assay [2] (52.5 µM IgG, read-out: Kd). For the same compound, the dissociation constant (Kd) was 128 µM in assay [2] (105 µM IgG, read-out: Kd) and 89 ± 36 µM in assay [2] (setting [4]). Further, the “anti-23F recognition of glycoside variant” value in assay [1] is on record as “uniquely specific for α-glycoside variants”.
